{"source": "patent US20060257347A1", "about": "“Self-preservation system” (priority 2005, published 2006)", "origin": "cited, not measured here", "details_in_all_cases": "hinokitiol alone; known to be", "key": {"[1]": {"test_system": "Staphylococcus aureus (ATCC No. 6538)"}, "[2]": {"test_system": "Escherichia coli (ATCC No. 8739)"}, "[3]": {"test_system": "Candida albicans (ATCC No. 10231)"}, "[4]": {"test_system": "Pseudomonas aeruginosa (ATCC No. 9027)"}, "[5]": {"test_system": "Aspergillus niger (ATCC No. 16404)"}}, "data": [{"compound": "CC(C)c1cccc(=O)c(O)c1", "note": "[hinokitiol, Hinokitiol]", "values": [{"measurement": "MIC (Minimum Inhibitory Concentration) Staphylococcus aureus", "setting": "[1]", "result": 40.0, "unit": "mg/mL"}, {"measurement": "MIC (Minimum Inhibitory Concentration) Escherichia coli", "setting": "[2]", "result": 40.0, "unit": "mg/mL"}, {"measurement": "MIC (Minimum Inhibitory Concentration) Candida albicans", "setting": "[3]", "result": 12.5, "unit": "mg/mL"}, {"measurement": "MIC (Minimum Inhibitory Concentration) Pseudomonas aeruginosa", "setting": "[4]", "result": 50.0, "unit": "mg/mL"}, {"measurement": "MIC (Minimum Inhibitory Concentration) Aspergillus niger", "setting": "[5]", "result": 40.0, "unit": "mg/mL"}]}]}
